Data reported in publication PMC10408569, “Recruitment of hexahydroquinoline as anticancer scaffold targeting inhibition of wild and mutants EGFR (EGFR^WT, EGFR^T790M, and EGFR^L858R)” (Journal of Enzyme Inhibition and Medicinal Chemistry, 2023).

Columns and labels:
SW-620 = test: NCI-60 anticancer screening (SRB); format: cell-based; conditions: Homo sapiens; SW-620, colon cancer; one dose 10 μM; read-out: Growth Inhibition Percentage (GI %)
SK-MEL-5 = test: NCI-60 anticancer screening (SRB); format: cell-based; conditions: Homo sapiens; SK-MEL-5, melanoma; one dose 10 μM; read-out: Growth Inhibition Percentage (GI %)
SR = test: NCI-60 anticancer screening (SRB); format: cell-based; conditions: Homo sapiens, leukemia, one dose 10 μM, read-out: Growth Inhibition Percentage (GI %)
786-0 = test: NCI-60 anticancer screening (SRB); format: cell-based; conditions: Homo sapiens; 786-0, renal cancer; one dose 10 μM; read-out: Growth Inhibition Percentage (GI %)
SK-OV-3 = test: NCI-60 anticancer screening (SRB); format: cell-based; conditions: Homo sapiens; SK-OV-3, ovarian cancer; one dose 10 μM; read-out: Growth Inhibition Percentage (GI %)
OVCAR-8 = test: NCI-60 anticancer screening (SRB); format: cell-based; conditions: Homo sapiens; OVCAR-8, ovarian cancer; one dose 10 μM; read-out: Growth Inhibition Percentage (GI %)
NCI-H460 = test: NCI-60 anticancer screening (SRB); format: cell-based; conditions: Homo sapiens; NCI-H460, NSC lung cancer; one dose 10 μM; read-out: Growth Inhibition Percentage (GI %)
IGROV1 = test: NCI-60 anticancer screening (SRB); format: cell-based; conditions: Homo sapiens, IGROV-1; IGROV1, ovarian cancer; one dose 10 μM; read-out: Growth Inhibition Percentage (GI %)
UACC-257 = test: NCI-60 anticancer screening (SRB); format: cell-based; conditions: Homo sapiens; UACC-257, melanoma; one dose 10 μM; read-out: Growth Inhibition Percentage (GI %)
MDA-MB-435 = test: NCI-60 anticancer screening (SRB); format: cell-based; conditions: Homo sapiens; MDA-MB-435, melanoma; one dose 10 μM; read-out: Growth Inhibition Percentage (GI %)
M14 = test: NCI-60 anticancer screening (SRB); format: cell-based; conditions: Homo sapiens; M14, melanoma; one dose 10 μM; read-out: Growth Inhibition Percentage (GI %)
T-47D = test: NCI-60 anticancer screening (SRB); format: cell-based; conditions: Homo sapiens, T47D, breast cancer, one dose 10 μM, read-out: Growth Inhibition Percentage (GI %)
SNB-75 = test: NCI-60 anticancer screening (SRB); format: cell-based; conditions: Homo sapiens; SNB-75, CNS cancer; one dose 10 μM; read-out: Growth Inhibition Percentage (GI %)
HOP-92 = test: NCI-60 anticancer screening (SRB); format: cell-based; conditions: Homo sapiens; HOP-92, NSC lung cancer; one dose 10 μM; read-out: Growth Inhibition Percentage (GI %)
UACC-62 = test: NCI-60 anticancer screening (SRB); format: cell-based; conditions: Homo sapiens; UACC-62, melanoma; one dose 10 μM; read-out: Growth Inhibition Percentage (GI %)
HT29 = test: NCI-60 anticancer screening (SRB); format: cell-based; conditions: Homo sapiens, HT-29; HT29, colon cancer; one dose 10 μM; read-out: Growth Inhibition Percentage (GI %)
MOLT-4 = test: NCI-60 anticancer screening (SRB); format: cell-based; conditions: Homo sapiens; MOLT-4, leukemia; one dose 10 μM; read-out: Growth Inhibition Percentage (GI %)
MDA-MB-231 = test: NCI-60 anticancer screening (SRB); format: cell-based; conditions: Homo sapiens; MDA-MB-231, breast cancer; one dose 10 μM; read-out: Growth Inhibition Percentage (GI %)
HL-60(TB) = test: NCI-60 anticancer screening (SRB); format: cell-based; conditions: Homo sapiens, leukemia, one dose 10 μM, read-out: Growth Inhibition Percentage (GI %)
CAKI-1 = test: NCI-60 anticancer screening (SRB); format: cell-based; conditions: Homo sapiens; CAKI-1, renal cancer; one dose 10 μM; read-out: Growth Inhibition Percentage (GI %)
A549/ATCC = test: NCI-60 anticancer screening (SRB); format: cell-based; conditions: Homo sapiens; A549/ATCC, NSC lung cancer; one dose 10 μM; read-out: Growth Inhibition Percentage (GI %)
HOP-62 = test: NCI-60 anticancer screening (SRB); format: cell-based; conditions: Homo sapiens; HOP-62, NSC lung cancer; one dose 10 μM; read-out: Growth Inhibition Percentage (GI %)
A498 = test: NCI-60 anticancer screening (SRB); format: cell-based; conditions: Homo sapiens; A498, renal cancer; one dose 10 μM; read-out: Growth Inhibition Percentage (GI %)
PC-3 = test: NCI-60 anticancer screening (SRB); format: cell-based; conditions: Homo sapiens; PC-3, prostate cancer; one dose 10 μM; read-out: Growth Inhibition Percentage (GI %)
OVCAR-4 = test: NCI-60 anticancer screening (SRB); format: cell-based; conditions: Homo sapiens; OVCAR-4, ovarian cancer; one dose 10 μM; read-out: Growth Inhibition Percentage (GI %)
KM 12 = test: NCI-60 anticancer screening (SRB); format: cell-based; conditions: Homo sapiens, KM12; KM 12, colon cancer; one dose 10 μM; read-out: Growth Inhibition Percentage (GI %)
SK-MEL-28 = test: NCI-60 anticancer screening (SRB); format: cell-based; conditions: Homo sapiens; SK-MEL-28, melanoma; one dose 10 μM; read-out: Growth Inhibition Percentage (GI %)
K-562 = test: NCI-60 anticancer screening (SRB); format: cell-based; conditions: Homo sapiens, K562; K-562, leukemia; one dose 10 μM; read-out: Growth Inhibition Percentage (GI %)
HCT-15 = test: NCI-60 anticancer screening (SRB); format: cell-based; conditions: Homo sapiens; HCT-15, colon cancer; one dose 10 μM; read-out: Growth Inhibition Percentage (GI %)
MALME-3M = test: NCI-60 anticancer screening (SRB); format: cell-based; conditions: Homo sapiens, melanoma, one dose 10 μM, read-out: Growth Inhibition Percentage (GI %)
EKVX = test: NCI-60 anticancer screening (SRB); format: cell-based; conditions: Homo sapiens, NSC lung cancer, one dose 10 μM, read-out: Growth Inhibition Percentage (GI %)

Compound	inhibition at 10 µM (SW-620) [%]	inhibition at 10 µM (SK-MEL-5) [%]	inhibition at 10 µM (SR) [%]	inhibition at 10 µM (786-0) [%]	inhibition at 10 µM (SK-OV-3) [%]	inhibition at 10 µM (OVCAR-8) [%]	inhibition at 10 µM (NCI-H460) [%]	inhibition at 10 µM (IGROV1) [%]	inhibition at 10 µM (UACC-257) [%]	inhibition at 10 µM (MDA-MB-435) [%]	inhibition at 10 µM (M14) [%]	inhibition at 10 µM (T-47D) [%]	melting point [°C]	inhibition at 10 µM (SNB-75) [%]	inhibition at 10 µM (HOP-92) [%]	inhibition at 10 µM (UACC-62) [%]	inhibition at 10 µM (HT29) [%]	inhibition at 10 µM (MOLT-4) [%]	inhibition at 10 µM (MDA-MB-231) [%]	inhibition at 10 µM (HL-60(TB)) [%]	also measured
CCOC(=O)C1=C(N)N(c2ccc(C)cc2)C2=C(C(=O)CC(C)(C)C2)C1c1ccccc1Cl (racemic) [6b, (±)-Ethyl 2-amino-4–(2-chlorophenyl)-7,7-dimethyl-1–(4-methylphenyl)-5-oxo-1,4,5,6,7,8-hexahydroquinoline-3-carboxylate]	19	17	< 10	< 10	< 10	20	20	< 10	< 10	< 10	< 10	21	240 to 242	29	< 10	23	30	< 10	< 10	< 10	inhibition at 10 µM (CAKI-1): 31%; inhibition at 10 µM (A549/ATCC): 13%; inhibition at 10 µM (HOP-62): < 10%; inhibition at 10 µM (A498): < 10%; inhibition at 10 µM (PC-3): 43%; inhibition at 10 µM (OVCAR-4): < 10%; inhibition at 10 µM (KM 12): < 10%; inhibition at 10 µM (SK-MEL-28): < 10%; inhibition at 10 µM (K-562): < 10%; inhibition at 10 µM (HCT-15): 30%; inhibition at 10 µM (MALME-3M): < 10%; inhibition at 10 µM (EKVX): 15%
CCOC(=O)C1=C(N)N(c2ccccc2)C2=C(C(=O)CC(C)(C)C2)C1c1ccccc1OC (racemic) [6g, (±)-Ethyl 2-amino-4–(2-methoxyphenyl)-7,7-dimethyl-5-oxo-1-phenyl-1,4,5,6,7,8-hexahydroquinoline-3-carboxylate]	< 10	< 10	< 10	< 10	< 10	< 10	< 10	< 10	< 10	< 10	< 10	< 10	243 to 245	< 10	< 10	< 10	< 10	< 10	< 10	< 10	inhibition at 10 µM (CAKI-1): < 10%; inhibition at 10 µM (A549/ATCC): < 10%; inhibition at 10 µM (HOP-62): < 10%; inhibition at 10 µM (A498): < 10%; inhibition at 10 µM (PC-3): 11%; inhibition at 10 µM (OVCAR-4): < 10%; inhibition at 10 µM (KM 12): < 10%; inhibition at 10 µM (SK-MEL-28): < 10%; inhibition at 10 µM (K-562): < 10%; inhibition at 10 µM (HCT-15): < 10%; inhibition at 10 µM (MALME-3M): < 10%; inhibition at 10 µM (EKVX): < 10%
CCOC(=O)C1=C(N)N(c2ccc(C)cc2)C2=C(C(=O)CC(C)(C)C2)C1c1ccccc1OC (racemic) [6h, (±)-Ethyl 2-amino-4–(2-methoxyphenyl)-7,7-dimethyl-1–(4-methylphenyl)-5-oxo-1,4,5,6,7,8-hexahydroquinoline-3-carboxylate]	< 10	< 10	< 10	< 10	< 10	< 10	< 10	< 10	< 10	< 10	< 10	< 10	181 to 183	< 10	< 10	< 10	< 10	< 10	< 10	< 10	inhibition at 10 µM (CAKI-1): < 10%; inhibition at 10 µM (A549/ATCC): < 10%; inhibition at 10 µM (HOP-62): < 10%; inhibition at 10 µM (A498): < 10%; inhibition at 10 µM (PC-3): < 10%; inhibition at 10 µM (OVCAR-4): < 10%; inhibition at 10 µM (KM 12): < 10%; inhibition at 10 µM (SK-MEL-28): < 10%; inhibition at 10 µM (K-562): < 10%; inhibition at 10 µM (HCT-15): < 10%; inhibition at 10 µM (MALME-3M): < 10%; inhibition at 10 µM (EKVX): < 10%
CCOC(=O)C1=C(N)N(c2ccccc2)C2=C(C(=O)CC(C)(C)C2)C1c1ccc(F)cc1 (racemic) [8a, (±)-Ethyl 2-amino-4–(4-fluorophenyl)-7,7-dimethyl-5-oxo-1-phenyl-1,4,5,6,7,8-hexahydroquinoline-3-carboxylate]	< 10	< 10	< 10	< 10	< 10	< 10	< 10	< 10	< 10	< 10	< 10	< 10	215 to 217	< 10	< 10	< 10	< 10	< 10	< 10	< 10	inhibition at 10 µM (CAKI-1): < 10%; inhibition at 10 µM (A549/ATCC): < 10%; inhibition at 10 µM (HOP-62): < 10%; inhibition at 10 µM (A498): < 10%; inhibition at 10 µM (PC-3): < 10%; inhibition at 10 µM (OVCAR-4): < 10%; inhibition at 10 µM (KM 12): < 10%; inhibition at 10 µM (SK-MEL-28): < 10%; inhibition at 10 µM (K-562): < 10%; inhibition at 10 µM (HCT-15): < 10%; inhibition at 10 µM (MALME-3M): < 10%; inhibition at 10 µM (EKVX): < 10%
